Results from PMC6646405, “A quantitative, high-throughput method identifies protein–glycan interactions via mass spectrometry” (Communications Biology, 2019).
Values joined by “and” are separate entries in the source; they are usually repeats but may differ in a detail not shown here. Equal values may be shown once.

Key:
[1] = target: Cholera toxin B subunit homopentamer (CTB5) (Vibrio cholerae serotype O1, UniProt P01556); format: binding
[2] = target: human carbonic anhydrase type 1 (Homo sapiens, UniProt P00915); assay: Direct ESI-MS affinity of OSmod for the universal proxy protein (UniPproxy); conditions: read-out: Kd of OSmod for UniPproxy; direct ESI-MS, 200 mM aqueous ammonium acetate, pH 7, 25 °C
[3] = test system: Maackia amurensis lectins (MAA); assay: CUPRA library screening and affinity, MAA; format: binding; conditions: 50uM MAA; mean of 4 DIi values, FigS3c
Experimental: Unless otherwise noted, the measurements were performed at 25 °C. […] We identified specific ligands from the depletion index (DIi, Eq. 1) – the change in the fractional abundance (Fi, Eq. 2) ratio of ligand i-bound and free ^UniPproxy ions upon addition of GBP. Prior to calculating Fi, we treated each mass spectrum with the Sliding Window Adducts Removal Method (SWARM)[18] to remove contributions to the abundance of ^UniPproxy -OS^mod complex ions from adducts, formed by the ESI process, of neighbouring complex ions (Supplementary Fig. 2). Shown in Fig. 2a is a summary of the DIi measured by CUPRA screening of the 66-component library against S4 (50 μM). As expected, the average DIi for this negative control is close to 1.0 (0.99 ± 0.03). In contrast, CUPRA screening against the positive controls produced decreases in DIi for one or more of the library components. […] Application of CUPRA to human CD22, part of an important class of Neu5Ac-binding GBPs implicated in both innate and adaptive immunity, correctly identified HMO08 as a ligand (Supplementary Fig. 4a). CUPRA screening of MAA at high concentration (50 μM) identified HMO03 and GA06 as ligands. […]
Using SWARM-treated mass spectra, DIi was calculated for each ligand from the ratio of the fractional abundances (Fi) of ligand (i)-bound and free ^UniPproxy ions in the presence (+GBP) and absence (-GBP) of GBP, Eqs. […]

human siglec-2 (CD22) = target: T1, human siglec-2 (CD22) (Homo sapiens, UniProt P20273); assay: CUPRA library screening and affinity, siglec-2; format: binding; conditions: for average DI: mean of 4 DIi values
T1 construct: Residues 1–332 of human Siglec-2 (MW 140 kDa, purity > 95%) were cloned in frame with human IgG1 Fc and a C-terminal His6; made in house
T1 sequence (P20273 20-332): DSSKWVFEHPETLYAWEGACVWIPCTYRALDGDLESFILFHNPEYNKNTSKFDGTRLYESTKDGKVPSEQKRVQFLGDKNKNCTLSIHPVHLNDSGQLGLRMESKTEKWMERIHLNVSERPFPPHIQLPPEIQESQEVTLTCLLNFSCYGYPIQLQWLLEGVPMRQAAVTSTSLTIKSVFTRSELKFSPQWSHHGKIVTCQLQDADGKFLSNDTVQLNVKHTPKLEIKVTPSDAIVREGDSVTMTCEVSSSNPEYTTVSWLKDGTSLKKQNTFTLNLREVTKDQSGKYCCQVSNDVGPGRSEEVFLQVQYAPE

[4] = target: Sambucus nigra lectin (SNA) (Sambucus nigra, UniProt Q41358); format: binding
Sambucus nigra lectin (SNA), sequence (Q41358 309-570 limits assumed): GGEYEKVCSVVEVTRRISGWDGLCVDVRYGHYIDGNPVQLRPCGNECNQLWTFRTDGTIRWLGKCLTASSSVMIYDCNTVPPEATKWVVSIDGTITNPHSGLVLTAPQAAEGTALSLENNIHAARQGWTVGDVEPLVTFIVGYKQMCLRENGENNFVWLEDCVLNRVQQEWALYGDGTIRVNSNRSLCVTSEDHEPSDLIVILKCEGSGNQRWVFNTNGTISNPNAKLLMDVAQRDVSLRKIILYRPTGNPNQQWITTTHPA
Sambucus nigra lectin (SNA), sequence (Q41358 29-289 partner limits assumed): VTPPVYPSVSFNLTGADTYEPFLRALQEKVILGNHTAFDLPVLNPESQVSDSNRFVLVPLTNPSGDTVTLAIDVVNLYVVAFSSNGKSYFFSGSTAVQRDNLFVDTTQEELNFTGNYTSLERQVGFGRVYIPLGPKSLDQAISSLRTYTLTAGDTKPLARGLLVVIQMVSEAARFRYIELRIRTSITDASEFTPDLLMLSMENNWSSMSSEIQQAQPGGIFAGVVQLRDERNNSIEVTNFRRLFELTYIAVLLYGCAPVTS

Cholera toxin B subunit homopentamer (CTB5), sequence (P01556 22-124 limits assumed): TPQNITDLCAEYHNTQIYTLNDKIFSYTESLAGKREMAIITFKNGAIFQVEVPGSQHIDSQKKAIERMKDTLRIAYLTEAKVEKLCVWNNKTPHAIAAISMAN
human carbonic anhydrase type 1, sequence (P00915 whole entry): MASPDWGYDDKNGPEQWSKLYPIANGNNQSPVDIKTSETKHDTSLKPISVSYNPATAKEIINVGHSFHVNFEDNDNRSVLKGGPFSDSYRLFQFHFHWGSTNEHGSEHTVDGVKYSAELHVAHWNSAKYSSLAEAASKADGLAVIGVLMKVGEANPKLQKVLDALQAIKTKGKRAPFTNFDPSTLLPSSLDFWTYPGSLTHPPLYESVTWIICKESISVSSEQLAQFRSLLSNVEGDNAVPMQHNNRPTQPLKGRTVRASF

With CC(=O)N[C@H]1[C@H](O[C@@H]2[C@H](O[C@]3(C(=O)O)C[C@H](O)[C@@H](NC(C)=O)[C@H]([C@H](O)[C@@H](CO)O[C@]4(C(=O)O)C[C@H](O)[C@@H](NC(C)=O)[C@H]([C@H](O)[C@H](O)CO)O4)O3)[C@@H](O)[C@H](O[C@H]3[C@H](O)[C@@H](O)[C@H](N(CCOCCOCCNC(=O)[C@H](Cc4ccccc4)NC(=O)[C@H](Cc4ccccc4)NC(=O)CCCC(=O)NCCc4ccc(S(N)(=O)=O)cc4)C(C)=O)O[C@@H]3CO)O[C@@H]2CO)O[C@H](CO)[C@H](O)[C@@H]1O [GA10, GalNAcβ1-4(Neu5Acα2-8 Neu5Acα2-3)Galβ1-4Glc-CL] the “DIi(2uM CTB5)” value [1] was 1.017 and 1.023 and 1.026 and 1.032, the “DIi(10uM CTB5)” value [1] was 1.049 and 1.055 and 1.045 and 1.05 and the “DIi(10uM CTB5 at 0C)” value [1] was 1.029 and 1.025 and 1.026 and 1.021. The “average DI” value [1] was 1.025 and 1.0497, the Kd [2] was 14.1 ± 1.9 µM and the “average DI” value [3] was 1.024. The “average DI” value (human siglec-2 (CD22); 25uM CD22) was 0.9974, the “DIi(25uM CD22)” value (human siglec-2 (CD22); 25uM CD22, replicate column 1 of 4) was 0.9925 and the “DIi(25uM CD22)” value (human siglec-2 (CD22); 25uM CD22, replicate column 2 of 4) was 1.005. The “DIi(25uM CD22)” value (human siglec-2 (CD22); 25uM CD22, replicate column 3 of 4) was 0.9899, the “DIi(25uM CD22)” value (human siglec-2 (CD22); 25uM CD22, replicate column 4 of 4) was 1.002 and the “average DI” value (human siglec-2 (CD22); 25uM CD22 at 0C) was 0.9401. The “DIi(25uM CD22 at 0C)” value (human siglec-2 (CD22); 25uM CD22 at 0C, replicate column 1 of 4) was 0.9406, the “DIi(25uM CD22 at 0C)” value (human siglec-2 (CD22); 25uM CD22 at 0C, replicate column 2 of 4) was 0.9609 and the “DIi(25uM CD22 at 0C)” value (human siglec-2 (CD22); 25uM CD22 at 0C, replicate column 3 of 4) was 0.9196. The “DIi(25uM CD22 at 0C)” value (human siglec-2 (CD22); 25uM CD22 at 0C, replicate column 4 of 4) was 0.9395, the “DIi(5uM SNA)” value [4] was 1 and 0.9993 and 0.9948 and 0.9939 and the “average DI” value [4] was 0.9971.
